System: not listed separately
Assay: decomposition temperature of ionic liquids
Format: physicochemical
Settings: 1-alkyl-pyridinium ionic liquids, Table 3, citation not given

Compound | Decomposition Temperature
CCCC[n+]1ccc(C)cc1.F[B-](F)(F)F [[1-butyl-4-methylpyridinium] [BF4]] | 332 °C
CCCCc1ccc[nH+]c1.F[P-](F)(F)(F)(F)F [[3-n-butyl-pyridinium] [PF6]] | 125-444 °C
CCCC[n+]1cccc(C)c1.F[P-](F)(F)(F)(F)F [[1-butyl-3-methylpyridinium] [PF6]] | 347 °C
CCCC[n+]1ccc(C)cc1.[Cl-] [[1-butyl-4-methylpyridinium] Cl] | 214 °C
CCCC[n+]1ccc(C)cc1.F[P-](F)(F)(F)(F)F [[1-butyl-4-methylpyridinium] [PF6]] | 358 °C
F[P-](F)(F)(F)(F)F.c1ccc(CCCc2cc[nH+]cc2)cc1 [[4-phenylpropyl-pyridinium] [PF6]] | 163-474 °C
CCCCCC[n+]1ccc(C)cc1.[Cl-] [[1-hexyl-4-methylpyridinium] Cl] | 218 °C

System: rats
Assay: not given
Settings: acute toxicity; cited from earlier work

Compound | LD50
CCCCCCOCn1cc[n+](C)c1.F[B-](F)(F)F [1-hexyloxymethyl-3-methylimidazolium tetrafluoroborate] | 1400 mg/kg

System: not given
Assay: not given
Settings: 1-alkyl-3-methylimidazolium ionic liquids, Table 2, literature citations a-g; cited from earlier work

Compound | Decomposition Temperature
CCCCCCn1cc[n+](C)c1.F[P-](F)(F)(F)(F)F [[C6mim] [PF6]] | 417 °C
CCCn1cc[n+](C)c1.F[P-](F)(F)(F)(F)F [[C3mim] [PF6]] | 335 °C
CCCCn1cc[n+](C)c1.[Cl-] [[C4mim] Cl] | 254 °C
CCCCCCn1cc[n+](C)c1.[Cl-] [[C6mim] Cl] | 253 °C
CCCCCCCCn1cc[n+](C)c1.[Cl-] [[C8mim] Cl] | 243 °C
CCCCn1cc[n+](C)c1.F[P-](F)(F)(F)(F)F [[C4mim] [PF6]] | 349 °C
CCC[n+]1ccn(C)c1.[Cl-] [[C3mim] Cl] | 282 °C
CCCCn1cc[n+](C)c1.[I-] [[C4mim] I] | 265 °C
